{
  "source": "paper PMC8463443",
  "about": "(Acta Pharmaceutica Sinica. B, 2021)",
  "key": {"[1]": {"tested_on": "monkey kidney cell line Vero E6", "assay": "Cell viability, Vero E6", "assay_type": "cell-based", "conditions": "monkey kidney cell line Vero E6 (Fig. S6)"}, "[2]": {"assay": "Water solubility of peptide", "assay_type": "physicochemical", "conditions": "in words, method not given"}},
  "note": "Where no end group is shown, it is not given here.",
  "data": [
    {"sequence": "KLTFLEYWAQLMQK [M3-2K]", "values": [
      {"measurement": "effect on viability of Vero E6", "setting": "[1]", "value": "neither PMI-2K nor M3-2K had any effect on the viability"},
      {"measurement": "water solubility", "setting": "[2]", "value": "improved peptide solubility"}
    ]}
  ]
}
